In patent US20090099167A1, “Organic compounds” (Novartis Institutes for Biomedical Research, priority 2004, published 2009):

molecular target: T1, human Flt-3 (Homo sapiens, UniProt P36888); experiment: Flt3 kinase inhibition, GST-Flt-3, 33P incorporation into poly(Glu,Tyr); type: biochemical; details: Table 5; read-out: Flt-3, IC50 class
T1 construct: expressing the amino acid region amino acids 563-993 of the cytoplasmic kinase domain of human Flt-3; made in house; host or cells: Sf9 (baculovirus)
T1 sequence (P36888 563-993): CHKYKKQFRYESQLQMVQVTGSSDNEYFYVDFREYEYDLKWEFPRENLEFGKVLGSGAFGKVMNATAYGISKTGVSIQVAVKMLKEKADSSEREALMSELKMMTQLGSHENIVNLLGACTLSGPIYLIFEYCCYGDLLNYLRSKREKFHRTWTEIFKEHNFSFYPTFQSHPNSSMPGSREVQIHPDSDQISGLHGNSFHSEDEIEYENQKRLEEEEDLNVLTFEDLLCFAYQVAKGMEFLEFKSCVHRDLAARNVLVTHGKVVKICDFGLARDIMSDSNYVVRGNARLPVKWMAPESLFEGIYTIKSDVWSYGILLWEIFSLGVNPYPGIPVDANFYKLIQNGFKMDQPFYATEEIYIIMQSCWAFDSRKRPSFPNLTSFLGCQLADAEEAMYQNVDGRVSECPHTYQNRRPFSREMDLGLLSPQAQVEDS
Method: The compounds to be tested are then diluted in culture medium (without FCS, with 0.1% bovine serum albumin) and added to the cells. (Controls comprise medium without test compounds). After two hours' incubation at 37° C., recombinant VEGF is added; the final VEGF concentration is 20 ng/ml). After a further five minutes incubation at 37° C., the cells are washed twice with ice-cold PBS (phosphate-buffered saline) and immediately lysed in 100 μl lysis buffer per well. The lysates are then centrifuged to remove the cell nuclei, and the protein concentrations of the supernatants are determined using a commercial protein assay (BIORAD). The lysates can then either be immediately used or, if necessary, stored at −20° C. A sandwich ELISA is carried out to measure the VEGF-R2 phosphorylation: a monoclonal antibody to VEGF-R2 (for example Mab 1495.12.14; ProQinase, Freiburg, Germany) is immobilized on black ELISA plates (OptiPlate™ HTRF-96 from Packard). The plates are then washed and the remaining free protein-binding sites are saturated with 3% TopBlock® (Juro, Cat. # TB232010) in phosphate buffered saline with Tween 20® (polyoxyethylen(20)-sorbitane monolaurate, ICI/Uniquema) (PBST). The cell lysates (20 μg protein per well) are then incubated in these plates overnight at 4° C. together with an antiphosphotyrosine antibody coupled with alkaline phosphatase (PY20:AP from Zymed). […] The luminescence is measured in a Packard Top Count Microplate Scintillation Counter. The difference between the signal of the positive control (stimulated with VEGF) and that of the negative control (not stimulated with VEGF) corresponds to VEGF-induced VEGF-R2 phosphorylation (=100%). The activity of the tested substances is calculated as percent inhibition of VEGF-induced VEGF-R2 phosphorylation, wherein the concentration of substance that induces half the maximum inhibition is defined as the IC50 (inhibitory dose for 50% inhibition). […] Flt3 kinase inhibition is determined as follows: The baculovirus donor vector pFbacG01 (GIBCO) is used to generate a recombinant baculovirus expressing the amino acid region amino acids 563-993 of the cytoplasmic kinase domain of human Flt-3. The coding sequence for the cytoplasmic domain of Flt-3 is amplified by PCR from human c-DNA libraries (Clontech). The amplified DNA fragments and the pFbacG01 vector are made compatible for ligation by digestion with BamH1 and HindIII. Ligation of these DNA fragments results in the baculovirus donor plasmid Flt-3(1.1). The production of the viruses, the expression of proteins in Sf9 cells and the purification of the GST-fused proteins are performed as follows: Production of virus: Transfer vector (pFbacG01-Flt-3) containing the Flt-3 kinase domain is transfected into the DH10Bac cell line (GIBCO) and the transfected cells are plated on selective agar plates. Colonies without insertion of the fusion sequence into the viral genome (carried by the bacteria) are blue. Single white colonies are picked and viral DNA (bacmid) is isolated from the bacteria by standard plasmid purification procedures. Sf9 or Sf21 cells (American Type Culture Collection) are then transfected in flasks with the viral DNA using Cellfectin reagent. Determination of small scale protein expression in Sf9 cells: Virus containing media is collected from the transfected cell culture and used for infection to increase its titre. Virus containing media obtained after two rounds of infection is used for large-scale protein expression. For large-scale protein expression 100 cm^2 round tissue culture plates are seeded with 5×10^7 cells/plate and infected with 1 mL of virus-containing media (approx. 5 MOIs). After 3 days the cells are scraped off the plate and centrifuged at 500 rpm for 5 min. Cell pellets from 10-20, 100 cm^2 plates, are resuspended in 50 mL of ice-cold lysis buffer (25 mMTris-HCl, pH 7.5, 2 mM EDTA, 1% NP-40, 1 mM DTT, 1 mM PMSF). The cells are stirred on ice for 15 min and then centrifuged at 5000 rpms for 20 min. […]

IC50, > 10 µM:
Cc1nc2c(-c3cccc(N4CCOCC4)c3)cnn2c(N)c1-c1cccc(Cl)c1 [Example 87, 6-(3-Chloro-phenyl)-5-methyl-3-(3-morpholin-4-yl-phenyl)-pyrazolo[1,5-a]pyrimidin-7-ylamine]
COc1ccc(-c2cnn3c(N)c(-c4cccc(Cl)c4)c(C)nc23)cc1 [Example 88, 6-(3-Chloro-phenyl)-3-(4-methoxy-phenyl)-5-methyl-pyrazolo[1,5-a]pyrimidin-7-ylamine]
Cc1nc2c(-c3cccc(N4C[C@@H](C)O[C@@H](C)C4)c3)cnn2c(N)c1-c1cccc(Cl)c1 [Example 89, 6-(3-Chloro-phenyl)-3-[3-((2R,6S)-2,6-dimethyl-morpholin-4-yl)-phenyl]-5-methyl-pyrazolo[1,5-a]pyrimidin-7-ylamine]
Cc1nc2c(-c3cccc(N4CCN(CCO)CC4)c3)cnn2c(N)c1-c1cccc(Cl)c1 [Example 90, 2-(4-{3-[7-Amino-6-(3-chloro-phenyl)-5-methyl-pyrazolo[1,5-a]pyrimidin-3-yl]-phenyl}-piperazin-1-yl)-ethanol]
CN1CCN(c2cccc(-c3cnn4c(N)c(Cc5ccccc5)cnc34)c2)CC1 [Example 91, 6-Benzyl-3-[3-(4-methyl-piperazin-1-yl)-phenyl]-pyrazolo[1,5-a]pyrimidin-7-ylamine]
COc1ccc(-c2cnn3c(N)c(-c4cccc(Cl)c4)c(CF)nc23)cc1OC [Example 92, 6-(3-Chloro-phenyl)-3-(3,4-dimethoxy-phenyl)-5-fluoromethyl-pyrazolo[1,5-a]pyrimidin-7-ylamine]
COc1ccc(-c2cnn3c(N)c(-c4cccc(Cl)c4)c(C)nc23)cc1OC [Example 93, 6-(3-Chloro-phenyl)-3-(3,4-dimethoxy-phenyl)-5-methyl-pyrazolo[1,5-a]pyrimidin-7-ylamine]
COc1ccc(-c2cnn3c(N)c(-c4ccc(F)c(Cl)c4)c(C)nc23)cc1OC [Example 94, 6-(3-Chloro-4-fluoro-phenyl)-3-(3,4-dimethoxy-phenyl)-5-methyl-pyrazolo[1,5-a]pyrimidin-7-ylamine]
COc1ccc(-c2cnn3c(N)c(-c4ccc(F)c(Cl)c4)c(C)nc23)cc1 [Example 95, 6-(3-Chloro-4-fluoro-phenyl)-3-(4-methoxy-phenyl)-5-methyl-pyrazolo[1,5-a]pyrimidin-7-ylamine]
COc1ccc(-c2cnn3c(N)c(-c4ccc(F)cc4)c(C)nc23)cc1 [Example 96, 6-(4-Fluoro-phenyl)-3-(4-methoxy-phenyl)-5-methyl-pyrazolo[1,5-a]pyrimidin-7-ylamine]
Cc1nc2c(-c3cccc(N4CCN(CCO)CC4)c3)cnn2c(N)c1-c1ccc(F)cc1 [Example 97, 2-(4-{3-[7-Amino-6-(4-fluoro-phenyl)-5-methyl-pyrazolo[1,5-a]pyrimidin-3-yl]-phenyl}-piperazin-1-yl)-ethanol]
Cc1nc2c(-c3cccc(N4CCN(C)CC4)c3)cnn2c(N)c1-c1ccc(F)c(F)c1 [Example 98, 6-(3,4-Difluoro-phenyl)-5-methyl-3-[3-(4-methyl-piperazin-1-yl)-phenyl]-pyrazolo[1,5-a]pyrimidin-7-ylamine]
COc1ccc(-c2cnn3c(N)c(-c4ccc(F)c(F)c4)c(C)nc23)cc1OC [Example 99, 6-(3,4-Difluoro-phenyl)-3-(3,4-dimethoxy-phenyl)-5-methyl-pyrazolo[1,5-a]pyrimidin-7-ylamine]
Cc1nc2c(-c3cccc(N4CCN(CCO)CC4)c3)cnn2c(N)c1-c1ccc(F)c(Cl)c1 [Example 100, 2-(4-{3-[7-Amino-6-(3-chloro-4-fluoro-phenyl)-5-methyl-pyrazolo[1,5-a]pyrimidin-3-yl]-phenyl}-piperazin-1-yl)-ethanol]
Cc1nc2c(-c3cccc(N4CCN(CCO)CC4)c3)cnn2c(N)c1-c1ccc(F)c(F)c1 [Example 101, 2-(4-{3-[7-Amino-6-(3,4-difluoro-phenyl)-5-methyl-pyrazolo[1,5-a]pyrimidin-3-yl]-phenyl}-piperazin-1-yl)-ethanol]
Cc1nc2c(-c3cccc(N4CCC(N5CCCC5)CC4)c3)cnn2c(N)c1-c1cccc(Cl)c1 [Example 102, 6-(3-Chloro-phenyl)-5-methyl-3-[3-(4-pyrrolidin-1-yl-piperidin-1-yl)-phenyl]-pyrazolo[1,5-a]pyrimidin-7-ylamine]
Cc1nc2c(-c3cccc(N4CCC(N5CCCC5)CC4)c3)cnn2c(N)c1-c1ccc(F)cc1 [Example 103, 6-(4-Fluoro-phenyl)-5-methyl-3-[3-(4-pyrrolidin-1-yl-piperidin-1-yl)-phenyl]-pyrazolo[1,5-a]pyrimidin-7-ylamine]
Cc1nc2c(-c3cccc(N4CC[N+](C)([O-])CC4)c3)cnn2c(N)c1-c1ccc(F)cc1 [Example 106, 6-(4-Fluoro-phenyl)-5-methyl-3-[3-(4-methyl-4-oxy-piperazin-1-yl)-phenyl]-pyrazolo[1,5-a]pyrimidin-7-ylamine]
Cc1nc2c(-c3cccc([N+]4([O-])CC[N+](C)([O-])CC4)c3)cnn2c(N)c1-c1ccc(F)cc1 (stereo not shown) [Example 107, 6-(4-Fluoro-phenyl)-5-methyl-3-[3-(4-methyl-1,4-dioxy-piperazin-1-yl)-phenyl]-pyrazolo[1,5-a]pyrimidin-7-ylamine]
